Assay results from ChEMBL document CHEMBL1124526, “Synthesis and biological evaluation of certain 3-beta-D-ribofuranosyl-1,2,4-triazolo[4,3-b)pyridazines related to formycin prepared via ring closure of pyridazine precursors” (J Med Chem, 1989).
Active and inactive are the calls of the source.

How the values were obtained:
Human adenovirus 2 = assay: In vitro antiviral activity against adeno virus type 2; Compound was inactive at 100 uM and 1000 uM respectively.; type: functional, organism-based
Human rhinovirus 1A = assay: In vitro antiviral activity against rhino virus type 1-A (2060); Compound was inactive at 100 uM and 1000 uM respectively.; type: functional, organism-based
CCRF-CEM = assay: In vitro ability to inhibit the growth of CCRF-CEM human T-lymphoblastic leukemia; Compound was inactive at 100 uM and 1000 uM respectively.; type: functional, cell-based
Human alphaherpesvirus 2 = assay: In vitro antiviral activity against herpes simplex virus type 2 (MS); Compound was inactive at 100 uM and 1000 uM respectively.; type: functional, organism-based
Influenza A virus = assay: In vitro antiviral activity against influenza A virus (chile); Compound was inactive at 100 uM and 1000 uM respectively.; type: functional, organism-based
Homo sapiens = species on record: Homo sapiens; assay: In vitro ability to inhibit the growth of WI-L2 human B-lymphoblastic leukemia; Compound was inactive at 100 uM and 1000 uM respectively.; type: functional
Visna-maedi virus = assay: In vitro antiviral activity against vinsa virus (1513); Compound was inactive at 100 uM and 1000 uM respectively.; type: functional, organism-based
L1210 = assay: In vitro ability to inhibit the growth of L1210 murine lymphocytic leukemia; Compound was inactive at 100 uM and 1000 uM respectively.; type: functional, cell-based; conditions: Mus musculus
Human respirovirus 3 = assay: In vitro antiviral activity against parainfluenza virus type 3 (C243); Compound was inactive at 100 uM and 1000 uM respectively.; type: functional, organism-based
Semliki Forest virus = assay: In vitro antiviral activity against semliki forest virus (original); Compound was inactive at 100 uM and 1000 uM respectively.; type: functional, organism-based

Measured: Activity

Nc1ccc2nnc([C@@H]3O[C@H](CO)[C@@H](O)[C@H]3O)n2n1
inactive: Human adenovirus 2 inactive at 100 uM and 1000 uM respectively | Human rhinovirus 1A inactive at 100 uM and 1000 uM respectively | CCRF-CEM inactive at 100 uM and 1000 uM respectively | Human alphaherpesvirus 2 inactive at 100 uM and 1000 uM respectively | Influenza A virus inactive at 100 uM and 1000 uM respectively | Homo sapiens inactive at 100 uM and 1000 uM respectively | Visna-maedi virus inactive at 100 uM and 1000 uM respectively | L1210 inactive at 100 uM and 1000 uM respectively | Human respirovirus 3 inactive at 100 uM and 1000 uM respectively | Semliki Forest virus inactive at 100 uM and 1000 uM respectively

COc1ccc2nnc([C@@H]3O[C@H](CO)[C@@H](O)[C@H]3O)n2n1
inactive: Human adenovirus 2 inactive at 100 uM and 1000 uM respectively | Human rhinovirus 1A inactive at 100 uM and 1000 uM respectively | CCRF-CEM inactive at 100 uM and 1000 uM respectively | Human alphaherpesvirus 2 inactive at 100 uM and 1000 uM respectively | Influenza A virus inactive at 100 uM and 1000 uM respectively | Homo sapiens inactive at 100 uM and 1000 uM respectively | Visna-maedi virus inactive at 100 uM and 1000 uM respectively | L1210 inactive at 100 uM and 1000 uM respectively | Human respirovirus 3 inactive at 100 uM and 1000 uM respectively | Semliki Forest virus inactive at 100 uM and 1000 uM respectively

O=c1ccc2nnc([C@@H]3O[C@H](CO)[C@@H](O)[C@H]3O)n2[nH]1
inactive: Human adenovirus 2 inactive at 100 uM and 1000 uM respectively | Human rhinovirus 1A inactive at 100 uM and 1000 uM respectively | CCRF-CEM inactive at 100 uM and 1000 uM respectively | Human alphaherpesvirus 2 inactive at 100 uM and 1000 uM respectively | Influenza A virus inactive at 100 uM and 1000 uM respectively | Homo sapiens inactive at 100 uM and 1000 uM respectively | Visna-maedi virus inactive at 100 uM and 1000 uM respectively | L1210 inactive at 100 uM and 1000 uM respectively | Human respirovirus 3 inactive at 100 uM and 1000 uM respectively | Semliki Forest virus inactive at 100 uM and 1000 uM respectively

Nc1ccnn2c([C@@H]3O[C@H](CO)[C@@H](O)[C@H]3O)nnc12
inactive: Human adenovirus 2 inactive at 100 uM and 1000 uM respectively | Human rhinovirus 1A inactive at 100 uM and 1000 uM respectively | CCRF-CEM inactive at 100 uM and 1000 uM respectively | Human alphaherpesvirus 2 inactive at 100 uM and 1000 uM respectively | Influenza A virus inactive at 100 uM and 1000 uM respectively | Homo sapiens inactive at 100 uM and 1000 uM respectively | Visna-maedi virus inactive at 100 uM and 1000 uM respectively | L1210 inactive at 100 uM and 1000 uM respectively | Human respirovirus 3 inactive at 100 uM and 1000 uM respectively | Semliki Forest virus inactive at 100 uM and 1000 uM respectively

Nc1cnn2c([C@@H]3O[C@H](CO)[C@@H](O)[C@H]3O)nnc2c1Cl
inactive: Human adenovirus 2 inactive at 100 uM and 1000 uM respectively | Human rhinovirus 1A inactive at 100 uM and 1000 uM respectively | CCRF-CEM inactive at 100 uM and 1000 uM respectively | Human alphaherpesvirus 2 inactive at 100 uM and 1000 uM respectively | Influenza A virus inactive at 100 uM and 1000 uM respectively | Homo sapiens inactive at 100 uM and 1000 uM respectively | Visna-maedi virus inactive at 100 uM and 1000 uM respectively | L1210 inactive at 100 uM and 1000 uM respectively | Human respirovirus 3 inactive at 100 uM and 1000 uM respectively | Semliki Forest virus inactive at 100 uM and 1000 uM respectively

Nc1c(Cl)cnn2c([C@@H]3O[C@H](CO)[C@@H](O)[C@H]3O)nnc12
inactive: Human adenovirus 2 inactive at 100 uM and 1000 uM respectively | Human rhinovirus 1A inactive at 100 uM and 1000 uM respectively | CCRF-CEM inactive at 100 uM and 1000 uM respectively | Human alphaherpesvirus 2 inactive at 100 uM and 1000 uM respectively | Influenza A virus inactive at 100 uM and 1000 uM respectively | Homo sapiens inactive at 100 uM and 1000 uM respectively | Visna-maedi virus inactive at 100 uM and 1000 uM respectively | L1210 inactive at 100 uM and 1000 uM respectively | Human respirovirus 3 inactive at 100 uM and 1000 uM respectively | Semliki Forest virus inactive at 100 uM and 1000 uM respectively

Nc1cnn2c([C@@H]3O[C@H](CO)[C@@H](O)[C@H]3O)nnc2c1
inactive: Human adenovirus 2 inactive at 100 uM and 1000 uM respectively | Human rhinovirus 1A inactive at 100 uM and 1000 uM respectively | CCRF-CEM inactive at 100 uM and 1000 uM respectively | Human alphaherpesvirus 2 inactive at 100 uM and 1000 uM respectively | Influenza A virus inactive at 100 uM and 1000 uM respectively | Homo sapiens inactive at 100 uM and 1000 uM respectively | Visna-maedi virus inactive at 100 uM and 1000 uM respectively | L1210 inactive at 100 uM and 1000 uM respectively | Human respirovirus 3 inactive at 100 uM and 1000 uM respectively | Semliki Forest virus inactive at 100 uM and 1000 uM respectively
